Assay [1] has as its system male Wistar rats, DNBS challenge. Nature of the assay: DNBS-induced distal colitis, animal model for inflammatory bowel disease. The assay is classed as in vivo. The conditions noted are these: sc once a day for 6 days, 0.2 or 2.0 mg/animal/day, 25-30% decrease considered significant. The protocol: The capacity of androst-5-ene-3β,7β,16α,17β-tetrol (3β-tetrol) to limit or inhibit inflammation or symptoms of inflammation is shown using an animal model for inflammatory bowel disease using the following protocol.
Groups of 3 male Wistar rats (180±20 grams) fasted for 24 hours before 2,4-dinitrobenzene sulfonic acid (DNBS) or saline challenge are used. Distal colitis is induced by intra-colonic instillation of 0.5 mL of an ethanolic solution of DNBS (30 mg in 0.5 mL of a 30% ethanol in saline solution) after which 2 mL of air was injected through the cannula to ensure that the solution remained in the colon. The volume used was 0.1 mL per injection of 2 and 20 mg/mL of compound such as androst-5-ene-3β,7β,17β-triol or 3β-tetrol in a liquid formulation, which was administered by subcutaneous injection once a day for 6 days (0.2 mg/animal/day or 2.0 mg/animal/day). The formulation contains […] of compound. Concentrations of 2 mg/mL and 20 mg/mL are obtained by […] with vehicle that lacked compound.
The first dose is given 30 minutes after DNBS challenge. […] The presence of diarrhea is recorded daily by examining the anal area. […] Before removal of the colon, signs of adhesion between the colon and other organs are recorded. […]

Assay [2] concerns 8 week old db/db diabetic mice. Nature of the assay: Hyperinsulinemic-euglycemic clamp, glucose lowering in db/db diabetic mice. The conditions noted are these: for glucose infusion rate compared to the vehicle control: db/db mice, po bid 13 days, qd day 14, clamp on day 14, insulin 10 mU/kg/min; for glucose uptake in white vastus muscle / augmenting muscle glucose uptake in the gastrocnemius muscle: 14C-2-deoxyglucose during clamp; for glucose uptake in white vastus muscle: non oxidative muscle group; for augmenting muscle glucose uptake in the gastrocnemius muscle: p<0.05. The assay is classed as in vivo. On the procedure: Glucose lowering in 8 week old db/db diabetic mice: The hyperinsulinemic-euglycemic clamp protocol was conducted to measure insulin sensitivity in vivo. In this procedure, insulin was administered to raise the insulin concentration while glucose was infused to maintain euglycemia or a fixed, normal blood glucose level (about 180 mg/dL). […] The objective of this protocol was to investigate characterize the capacity of 17α-ethynylandrost-5-ene-3β,7β,17β-triol and androst-5-ene-3β,7β,16α,17β-tetrol to ameliorate systemic insulin resistance and improve whole body glucose disposal in the hyperinsulinemic-euglycemic clamp model. The degree of skeletal muscle and hepatic insulin sensitivity and tissue specific glucose uptake were also assessed. The animals were dosed daily by oral gavage for 14 days. On Day 10 of treatment catheters were implanted in the carotid artery and jugular vein. On the day of the clamp (day 14) the compound was administered at 7:30 am.
Body weight and glucose concentration were assessed on day 0, 7 and day 14 of treatment. On day 14 a euglycemic-hyperinsulinemic clamp was performed. Food was removed at 7:30 am and at 10:30 a primed continuous infusion of [3-^3H]-glucose (0.05 μCi/min) was administered. A baseline blood sample was taken at 12:50 (−10 min) and at 1:00 (0 min) a euglycemic-hyperinsulinemic clamp was initiated by administering 10 mU/kg/min of insulin. Glucose was infused at a variable rate to clamp the glucose concentration at about 180 mg/dl. A bolus of [^14C]-2deoxyglucose was given at the end of the study to assess tissue specific glucose uptake. Plasma ^14C 2-deoxyglucose was assessed at 122, 125, 130, 135, 145 min. The animals were then anesthetized with an intravenous infusion of sodium pentobarbital and selected tissues were removed, immediately frozen in liquid nitrogen and stored at −70° C. until analysis.
Analysis was conducted as follows. Plasma samples were deproteinized with Ba(OH)2 (0.3 N) and ZnSO4 (0.3 N), dried and radioactivity was assessed on scintillation counter (Packard TRICARB 2900 TR, Meriden, Conn.). Frozen tissue samples were homogenized in 0.5% perchloric acid, centrifuged and neutralized. One supernatant was directly counted to determine radioactivity from both [14C] DG and DGP. A second aliquot was treated with Ba(OH)2 and ZnSO4 to remove ^14C DGP and any tracer incorporated into glycogen and then counted to determine radioactivity from free [^14C]DG(2). [^14C]DGP was calculated as the difference between the two aliquots. The accumulation of [^14C]DGP was normalized to tissue weight and tracer bolus. Rg, an index of tissue specific glucose uptake was calculated as previously described (E. W. Kraegen et al., Am. J. Physiol., 248: E353-E362 (1985)). Whole body glucose turnover was calculated as the ratio of the ^3H glucose infusion rate (dpm/kg/min) and arterial plasma glucose specific activity (dpm/mg). Endogenous glucose production was calculated as the difference between the whole body glucose turnover and the exogenous glucose infusion rate (R. N. Bergman et al., Endocr. Rev., 6:45-86, (1985)).

The target in the next assay is estrogen receptor-β (Homo sapiens, UniProt Q92731). Nature of the assay: Interaction with estrogen receptor-β. The assay is classed as binding.
Sequence of estrogen receptor-β (Q92731 whole entry, species assumed): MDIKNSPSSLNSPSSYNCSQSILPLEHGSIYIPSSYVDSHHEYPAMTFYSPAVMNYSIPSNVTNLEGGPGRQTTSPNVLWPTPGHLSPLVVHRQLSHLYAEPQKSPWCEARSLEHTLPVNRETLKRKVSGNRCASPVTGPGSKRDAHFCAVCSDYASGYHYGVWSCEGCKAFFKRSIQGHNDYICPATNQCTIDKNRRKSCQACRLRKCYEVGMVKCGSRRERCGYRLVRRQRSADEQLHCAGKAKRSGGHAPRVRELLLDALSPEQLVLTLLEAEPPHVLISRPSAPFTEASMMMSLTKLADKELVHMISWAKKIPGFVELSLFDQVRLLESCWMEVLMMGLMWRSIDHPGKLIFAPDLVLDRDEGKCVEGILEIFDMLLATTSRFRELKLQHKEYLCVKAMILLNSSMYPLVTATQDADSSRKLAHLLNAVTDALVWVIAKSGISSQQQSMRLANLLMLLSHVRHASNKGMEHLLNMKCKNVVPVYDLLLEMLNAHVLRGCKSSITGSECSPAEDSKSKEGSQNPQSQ
A further assay deals with T1, androgen receptor (Homo sapiens, UniProt P10275).
T1 sequence (P10275 1-920): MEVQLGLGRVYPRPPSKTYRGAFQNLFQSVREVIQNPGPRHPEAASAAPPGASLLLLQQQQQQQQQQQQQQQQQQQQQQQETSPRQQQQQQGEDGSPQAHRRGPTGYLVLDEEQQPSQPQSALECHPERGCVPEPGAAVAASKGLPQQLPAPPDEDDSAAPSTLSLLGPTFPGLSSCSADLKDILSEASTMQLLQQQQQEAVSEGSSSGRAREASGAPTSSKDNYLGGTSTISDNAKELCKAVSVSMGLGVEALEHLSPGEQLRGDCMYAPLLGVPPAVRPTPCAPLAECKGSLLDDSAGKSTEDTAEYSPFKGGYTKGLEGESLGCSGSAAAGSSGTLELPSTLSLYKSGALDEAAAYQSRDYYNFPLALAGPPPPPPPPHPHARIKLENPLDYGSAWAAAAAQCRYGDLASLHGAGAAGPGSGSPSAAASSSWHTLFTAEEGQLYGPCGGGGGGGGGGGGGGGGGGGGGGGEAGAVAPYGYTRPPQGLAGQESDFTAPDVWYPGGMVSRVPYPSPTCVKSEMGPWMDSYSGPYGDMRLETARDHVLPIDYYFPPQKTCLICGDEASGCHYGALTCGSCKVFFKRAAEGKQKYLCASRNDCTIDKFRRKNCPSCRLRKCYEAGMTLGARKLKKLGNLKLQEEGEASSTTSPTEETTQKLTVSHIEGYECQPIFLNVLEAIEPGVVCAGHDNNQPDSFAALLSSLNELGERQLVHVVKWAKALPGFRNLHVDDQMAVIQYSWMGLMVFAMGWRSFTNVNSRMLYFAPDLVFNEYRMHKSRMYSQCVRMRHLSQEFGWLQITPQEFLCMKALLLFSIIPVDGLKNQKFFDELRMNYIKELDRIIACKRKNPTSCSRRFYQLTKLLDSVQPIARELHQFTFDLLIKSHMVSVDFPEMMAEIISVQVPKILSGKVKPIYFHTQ
In words: Interaction with androgen receptor. It counts as binding.

Another assay deals with estrogen receptor-α (Homo sapiens, UniProt P03372). Nature of the assay: Interaction with estrogen receptor-α. The assay is classed as binding.
Sequence of estrogen receptor-α (P03372 whole entry): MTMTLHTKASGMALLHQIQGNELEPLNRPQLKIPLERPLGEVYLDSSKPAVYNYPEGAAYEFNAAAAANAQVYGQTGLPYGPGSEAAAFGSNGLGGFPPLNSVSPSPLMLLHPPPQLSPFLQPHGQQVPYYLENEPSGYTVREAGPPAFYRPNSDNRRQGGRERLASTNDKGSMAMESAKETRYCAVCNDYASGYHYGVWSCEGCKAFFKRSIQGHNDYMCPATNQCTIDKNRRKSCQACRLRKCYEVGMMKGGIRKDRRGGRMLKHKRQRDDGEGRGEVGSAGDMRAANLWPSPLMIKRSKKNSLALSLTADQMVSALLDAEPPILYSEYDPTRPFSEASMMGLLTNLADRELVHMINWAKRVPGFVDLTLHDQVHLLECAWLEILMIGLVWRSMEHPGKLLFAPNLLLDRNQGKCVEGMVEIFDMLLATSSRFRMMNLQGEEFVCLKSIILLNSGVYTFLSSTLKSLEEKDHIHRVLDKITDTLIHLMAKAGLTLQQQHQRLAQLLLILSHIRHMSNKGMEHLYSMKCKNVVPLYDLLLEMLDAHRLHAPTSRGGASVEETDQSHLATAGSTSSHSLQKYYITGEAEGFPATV
The test system of another assay is MG-63 cells. In words: Reversal of adverse effects of dexamethasone in MG-63 osteoblasts (incl. osteoprotegerin synthesis). The assay is classed as cell-based, human. From the text: (§1) The capacity of 5-androstene-3β,7β,17β-triol, androst-5-ene-3β,7β,16α,17β-tetrol (3β-tetrol) and other compounds to reverse adverse effects of glucocorticoids in bone growth was shown in the human MG-63 osteosarcoma cell line. MG-63 cells are osteoblasts, which are cells that mediate bone growth. This cell line has been used extensively to study bone biology and to characterize the biological activity of compounds for treatment of bone loss conditions (e.g., B. D. Boyan et al., J. Biol. Chem., 264(20):11879-11886 (1989); L. C. Hofbauer et al., Endocrinology, 140(10):4382-4389 (1999)). Adverse toxicities associated with elevated glucocorticoid levels include a […] in the production of IL-6 and IL-8 by osteoblasts, including the MG-63 cell line, and an increase in the expression of the 11β-hydroxysteroid dehydrogenase type 1 enzyme (11β-HSD). Increased 11β-hydroxysteroid dehydrogenase type 1 enzyme results in increased levels of endogenous glucocorticoid activity by converting endogenous cortisone to the active cortisol, which inhibits bone growth. The 11β-HSD enzyme is expressed in liver, adipose tissue, brain and bone tissues. Cortisol generated by 11β-HSD-1 contributes to osteoporosis, insulin resistance, type 2 diabetes, dyslipidemia, obesity, central nervous system disorders such as stroke, neuron death, depression and Parkinson Disease. […]

The next assay concerns IL-6 from MG-63 cells. Nature of the assay: Inhibition of IL-6 from MG-63 cells. It counts as cell-based. The conditions noted are these: Homo sapiens, pilot studies.
Source text: as §1

A further assay concerns osteoprotegerin. In words: Osteoprotegerin levels in dexamethasone-treated mice. It counts as in vivo. Particulars: mice treated with vehicle and dexamethasone at 10 μg/day, daily for 23 days (positive control group). On the procedure: Osteoprotegerin levels in mice that are treated with vehicle and dexamethasone at 10 μg/day (positive control group) typically show 3.3 pMol/L osteoprotegerin, […]

These results are taken from patent publication US20120220560A1, “STEROID TETROL SOLID STATE FORMS” (priority 2010, published 2012).

Take `C[C@]12CC[C@H]3[C@@H]([C@@H](O)C=C4C[C@@H](O)CC[C@@]43C)[C@@H]1CC[C@@H]2O` [androst-5-ene-3β,7β,17β-triol, reference compound]: in assay [1], the “decrease in net colon-to-body weight ratio” value is 15-20%.
Regarding `C#C[C@]1(O)CC[C@H]2[C@@H]3[C@@H](O)C=C4C[C@@H](O)CC[C@]4(C)[C@H]3CC[C@@]21C` [17α-ethynylandrost-5-ene-3β,7β,17β-triol, reference compound], in assay [2], the “glucose infusion rate compared to the vehicle control” value is listed as “increased”.
`C[C@]12CC[C@H]3[C@@H]([C@@H](O)C=C4C[C@@H](O)CC[C@@]43C)[C@@H]1C[C@@H](O)[C@@H]2O` [Form 3β-tetrol, androst-5-ene-3β,7β,16α,17β-tetrol]: the “interaction with estrogen receptor-β” value at estrogen receptor-β was “does not interact”. Further, the “interaction with androgen receptor” value on androgen receptor was “does not interact”. For the same compound, the “interaction with estrogen receptor-α” value on estrogen receptor-α is “does not interact”. In addition, in the assay with MG-63 cells (MG-63 cells, 30 nM dexamethasone), the “concentration giving normal osteoprotegerin levels” value is 0.1 µM. Besides, in the assay with MG-63 cells (in the presence of 30 nM dexamethasone), the “reversal of the decrease in osteoprotegerin synthesis by MG-63 cells” value was “completely or partially reversed”. In addition, the “decrease in net colon-to-body weight ratio” value in assay [1] is reported as 25-35%. For the same compound, in assay [2], the “glucose uptake in white vastus muscle” value was “differences were not detected except between androst-5-ene-3β,7β,16α,17β-tetrol and rosiglitazone”; the “augmenting muscle glucose uptake in the gastrocnemius muscle” value is listed as “more effective”; the “glucose infusion rate compared to the vehicle control” value was “increased”.
Take `C[C@@H]1C[C@H]2[C@@H]3CCC4=CC(=O)C=C[C@]4(C)[C@@]3(F)[C@@H](O)C[C@]2(C)[C@@]1(O)C(=O)CO` [dexamethasone]: in the assay on IL-6 from MG-63 cells, the IC50 was 10 nM. Also, the osteoprotegerin level in the assay on osteoprotegerin amounted to 3.3 pmol/L.
Take `CN(CCOc1ccc(CC2SC(=O)NC2=O)cc1)c1ccccn1.O=C(O)/C=C\C(=O)O` (stereo not drawn) [rosiglitazone, rosiglitazone maleate, reference compound]: in assay [2], the “glucose uptake in white vastus muscle” value is “differences were not detected except between androst-5-ene-3β,7β,16α,17β-tetrol and rosiglitazone”; the “augmenting muscle glucose uptake in the gastrocnemius muscle” value is recorded as “more effective”.

The IC50 is the concentration that inhibits the measured activity by half. Lower therefore signals higher potency.
